Biological target: BTK (Homo sapiens (Human), UniProt Q06187)
Test: biochemical
Procedure: Btk kinase activity was determined using a homogenous time resolved fluorescence (HTRF) methodology. Measurements were performed in a reaction volume of 15 μL using 384-well assay plates. Kinase enzyme, inhibitor, ATP and 1 μM peptide substrate were incubated in a reaction buffer compose of Hepes50 mM (pH7.0), NaN3 0.02%, BSA 0.01%, Orthocanadate 0.1 mM. […] For each compound, enzyme activity as measured at various concentrations of compound, Negative control reactions were performed in the absence of inhibitor in two replicates and eight no enzyme controls were used to determine baseline fluorescence levels.

BTK, sequence (Q06187 whole entry, looked up, species assumed): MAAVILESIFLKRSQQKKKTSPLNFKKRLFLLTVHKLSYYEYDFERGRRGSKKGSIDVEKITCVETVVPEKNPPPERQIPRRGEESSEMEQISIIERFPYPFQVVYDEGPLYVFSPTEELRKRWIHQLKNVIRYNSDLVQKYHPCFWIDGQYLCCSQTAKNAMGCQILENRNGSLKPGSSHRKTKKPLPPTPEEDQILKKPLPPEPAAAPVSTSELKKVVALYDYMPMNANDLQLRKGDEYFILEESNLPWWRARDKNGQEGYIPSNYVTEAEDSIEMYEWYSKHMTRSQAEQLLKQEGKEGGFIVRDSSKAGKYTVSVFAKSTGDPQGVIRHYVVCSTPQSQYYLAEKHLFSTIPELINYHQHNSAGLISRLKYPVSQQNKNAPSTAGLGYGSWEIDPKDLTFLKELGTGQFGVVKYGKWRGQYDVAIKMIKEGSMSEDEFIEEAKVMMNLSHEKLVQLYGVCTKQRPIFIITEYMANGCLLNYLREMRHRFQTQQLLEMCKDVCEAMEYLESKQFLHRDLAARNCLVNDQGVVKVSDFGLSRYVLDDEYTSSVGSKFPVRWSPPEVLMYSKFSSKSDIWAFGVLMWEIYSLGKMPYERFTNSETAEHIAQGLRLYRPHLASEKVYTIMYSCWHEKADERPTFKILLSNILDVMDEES

Row | Structure (SMILES) | IC50
1 | CC#CC(=O)N1CCC[C@H]1c1nc(-c2ccc(Oc3cccc(OC)c3F)cc2)c2c(C)nccn12 [Example 57, (S)-1-(2-(1-(4-(2-fluoro-3-methoxyphenoxy)phenyl)-8-methylimidazo[1,5-a]pyrazin-3-yl)pyrrolidin-1-yl)but-2-yn-1-one] | 10 to 100 nM
2 | C=CC(=O)N1CCC[C@H]1c1nc(-c2ccc(Oc3ccccc3)cc2Cl)c2cnccn12 [Example 13, (S)-1-(2-(1-(2-chloro-4-phenoxyphenyl)imidazo[1,5-a]pyrazin-3-yl)pyrrolidin-1-yl)prop-2-en-1-one] | 10 to 100 nM
3 | CC#CC(=O)N1CCC[C@H]1c1nc(-c2ccc(COc3ccccc3)cc2)c2cnccn12 [Example 144, (S)-1-(2-(1-(4-(phenoxymethyl)phenyl)imidazo[1,5-a]pyrazin-3-yl)pyrrolidin-1-yl)but-2-yn-1-one] | 1000 to 10000 nM
4 | CC#CC(=O)N1CCCC[C@H]1c1nc(-c2ccc(OCc3cccc(F)c3)cc2)c2cnccn12 [Example 153, (S)-1-(2-(1-(4-((3-fluorobenzyl)oxy)phenyl)imidazo[1,5-a]pyrazin-3-yl)piperidin-1-yl)but-2-yn-1-one] | 1000 to 10000 nM
5 | CC#CC(=O)N1CCC[C@H]1c1nc(-c2ccc(Oc3cccc(OC)c3F)cc2)c2cncc(C)n12 [Example 63, (S)-1-(2-(1-(4-(2-fluoro-3-methoxyphenoxy)phenyl)-5-methylimidazo[1,5-a]pyrazin-3-yl)pyrrolidin-1-yl)but-2-yn-1-one] | 100 to 1000 nM
6 | CC#CC(=O)N1CC[C@@H](c2nc(-c3ccc(Oc4cccc(OC)c4F)cc3)c3c(CC)nccn23)C1 [Example 107, (R)-1-(3-(8-ethyl-1-(4-(2-fluoro-3-methoxyphenoxy)phenyl)imidazo[1,5-a]pyrazin-3-yl)pyrrolidin-1-yl)but-2-yn-1-one] | 10 to 100 nM
7 | COc1cccc(Oc2ccc(-c3nc([C@@H]4CCN(C(=O)/C(C#N)=C/C(C)(C)C)C4)n4ccnc(C)c34)cc2)c1F [Example 88, (R,E)-2-(3-(1-(4-(2-fluoro-3-methoxyphenoxy)phenyl)-8-methylimidazo[1,5-a]pyrazin-3-yl)pyrrolidine-1-carbonyl)-4,4-dimethylpent-2-enenitrile] | 10 to 100 nM
8 | CC#CC(=O)N1CC[C@@H](c2nc(-c3ccc(Oc4cccc(OC)c4F)cc3)c3cncc(OCCOC)n23)C1 [Example 103, (R)-1-(3-(1-(4-(2-fluoro-3-methoxyphenoxy)phenyl)-5-(2-methoxyethoxy)imidazo[1,5-a]pyrazin-3-yl)pyrrolidin-1-yl)but-2-yn-1-one] | 10 to 100 nM
9 | CC#CC(=O)N1CC[C@@H](c2nc(-c3ccc(Oc4cccc(OC)c4F)cc3)c3c(CO)nccn23)C1 [Example 119, (R)-1-(3-(1-(4-(2-fluoro-3-methoxyphenoxy)phenyl)-8-(hydroxymethyl)imidazo[1,5-a]pyrazin-3-yl)pyrrolidin-1-yl)but-2-yn-1-one] | 10 to 100 nM
10 | CC#CC(=O)N1CCC[C@H]1c1nc(-c2ccc(COc3cccc(F)c3)cc2)c2cnccn12 [Example 147, (S)-1-(2-(1-(4-((3-fluorophenoxy)methyl)phenyl)imidazo[1,5-a]pyrazin-3-yl)pyrrolidin-1-yl)but-2-yn-1-one] | 1000 to 10000 nM
11 | C=CC(=O)N1CC[C@@H](c2nc(-c3ccc(Oc4cccc(OC)c4F)cc3)c3cncc(C)n23)C1 [Example 72, (R)-1-(3-(1-(4-(2-fluoro-3-methoxyphenoxy)phenyl)-5-methylimidazo[1,5-a]pyrazin-3-yl)pyrrolidin-1-yl)prop-2-en-1-one] | 10 to 100 nM
12 | CC#CC(=O)N1CCCC[C@H]1c1nc(-c2ccc(COc3cccc(F)c3)cc2)c2c(C)nccn12 [Example 157, (S)-1-(2-(1-(4-((3-fluorophenoxy)methyl)phenyl)-8-methylimidazo[1,5-a]pyrazin-3-yl)piperidin-1-yl)but-2-yn-1-one] | 100 to 1000 nM
13 | C=CC(=O)N1CCCC[C@H]1c1nc(-c2ccc(C(=O)Nc3ccccn3)cc2)c2c(C)ncc(C)n12 [Example 188, (S)-4-(3-(1-acryloylpiperidin-2-yl)-5,8-dimethylimidazo [1,5-a]pyrazin-1-yl)-N-(pyridin-2-yl)benzamide] | 10 to 100 nM

Source: US10933063B2 (priority 2017, dated 2021)
